Experimental data from patent publication US11767298B2, “Substituted benzimidazoles as inhibitors of transforming growth factor-β kinase” (Duke University, priority 2016, dated 2023).
“Also recorded” adds a separate entry of the source.

What was measured:
MDA-MB-231 = assay: Viability and proliferation assays on breast cancer cell lines; format: cell-based; settings: 48 h and 72 h
TAK1 = TAK1 (Homo sapiens, UniProt O43318); assay: Kinase profiling (Dundee), TAK1; format: biochemical
Description: (§1) Kinase selectivity profiling. The selectivity profile of HS-206 to inhibit mammalian kinases was tested against a panel of 140 kinases at a single concentration of 10 μM. Tests were performed using a radiolabeld (^33P-ATP) filter-binding assay at the International Centre for Kinase Profiling at the University of Dundee, UK (http://www.kinase-screen.mrc.ac.uk/).
(§2) This panel contains members of all major kinase families, including tyrosine kinases (TK), tyrosine kinase-like (TKL), sterile serine/threonine (STE), and CDK/MAPK/GSK/CLK (CMGC). […] For these kinases, IC50 values were determined (Table 1).

60 cell lines (NCI-60) = assay: NCI-60 Cell One-Dose Screen; format: cell-based; settings: 10 μM, 24 h
Description: In order to examine the effect of HS-206 on cell viability of different cancers, a screen of 60 cell lines was performed at the NCI, called the NCI-60 Cell One-Dose Screen. […] This screen determined growth inhibition as an effect of HS-206 treatment over a period of 24 h.

CLK2 = CLK2 (Homo sapiens, UniProt P49760); assay: Kinase profiling (Dundee), CLK2; format: biochemical; settings: 10 μM
Description: as §1, §2

P. berghei EEFs = assay: Immunofluorescence analysis of P. berghei EEFs in Huh7 cells; format: cell-based
Description: Immunofluorescence analysis of EEFs. For immunofluorescence analysis of EEFs, Huh7 cells were fixed with 4% paraformaldehyde for 10 min at room temperature (RT), washed thrice with PBS, permeabilized with cooled methanol for 10 min at −20° C. and blocked with 3% BSA in PBS for 30 min at RT. Thereafter, cells were incubated with a primary antibody, mouse anti-PbHSP70 (clone 2E6 1:1000) diluted in blocking buffer overnight at 4° C. Following incubation, samples were washed with PBS and incubated for 1 hr at RT with a secondary antibody, goat anti-mouse AlexaFluor 488 (1:400, Life Technologies). Finally, nuclei were stained with DAPI for 15 min at RT. For evaluation of fluorescence intensity from EEFs after infection with GFP-expressing P. berghei sporozoites, DAPI nucleus staining was performed following cell fixation. After five washes with PBS, ˜40 μl PBS was left in wells and images were acquired on a Zeiss Axio Observer widefield fluorescence microscope.
To further investigate the effect of compound 1 during malaria's liver stage, immunofluorescence assays were performed. Infected Huh7 cells were treated with 10 μM or 30 μM compound 1 for various period of time ranging from 0-24 h post-infection (hpi), 24-48 hpi and 0-48 hpi, and subsequently labeled with P. berghei HSP70 antibodies at 48 hpi. […] EEF size as compared to DMSO treated cells at all time periods tested (One-way ANOVA P<0.0001). The number of P.b. EEFs was not affected by 10 μM compound 1 as compared to DMSO treatment (FIG. 4B; One-way ANOVA P=0.0804). Similarly, treatment of infected cells with 30 μM compound 1 led to increased P.b. EEF size when added either for 0-24 hpi or 24-48 hpi. (FIGS. 4C and 4E; One-way ANOVA P<0.0001). […] Moreover, total fluorescence signal from GFP-expressing P.b. EEFs decreased with compound 1 when added for a period of 48 h post-infection. […] EEF size was increased by 10 μM compound 1 as compared to DMSO treated cells.

GCK = GCK (Homo sapiens, UniProt Q12851); assay: Kinase profiling (Dundee), GCK; format: biochemical; settings: 10 μM
Description: as §1, §2

IRAK4 = IRAK4 (Homo sapiens, UniProt Q9NWZ3); assay: Kinase profiling (Dundee), IRAK4; format: biochemical
Description: as §1, §2

[1] = tested on: K63-linked ubiquitination; assay: Western blot for K63-linked ubiquitination in Plasmodium blood stage; format: cell-based, P. falciparum; settings: 0.001-100 μM, 24 hr, ring-stage blood stage parasites
Description: P. falciparum asexual blood-stage culture. P. falciparum 3D7 isolate was maintained under standard conditions in complete culturing medium [10.44 g/L RPMI 1640 (Invitrogen), 5.94 g/L HEPES (Invitrogen), 50 mg/L hypoxanthine (Sigma), 2.02 g/L sodium bicarbonate (Sigma), 5 g/L albuMAX II (Invitrogen), 25 mg/L gentamicin (Sigma), pH 7.2]. Parasite cultures were supplied with human red blood cells (Gulf Coast Regional Blood Center) at 1% hematocrit. To obtain synchronous cultures, Plasmodium parasites (at least 50% parasites were at the early-ring stage) were pelleted at 300×g for 7 min using a low brake setting and treated with 25 volume 5% D-sorbitol (Sigma) at 37° C. for 10 min. Treated parasites were then harvested and washed with 25 volume of complete culturing medium using the aforementioned centrifugation protocol, and diluted with the complete medium to 1% hematocrit to maintain the parasite culture at 37° C. and 5% CO2.
Protein extraction and Western blot for K63-linked ubiquitination in Plasmodium blood stage. […] Total protein lysates were heated in SDS loading buffer for 5 min at 80° C., analyzed on 4-20% Tris-Glycine polyacrylamide gels (Novex, Life Technologies) and subsequently transferred to nitrocellulose membranes. […]

IRAK4, sequence (Q9NWZ3 whole entry): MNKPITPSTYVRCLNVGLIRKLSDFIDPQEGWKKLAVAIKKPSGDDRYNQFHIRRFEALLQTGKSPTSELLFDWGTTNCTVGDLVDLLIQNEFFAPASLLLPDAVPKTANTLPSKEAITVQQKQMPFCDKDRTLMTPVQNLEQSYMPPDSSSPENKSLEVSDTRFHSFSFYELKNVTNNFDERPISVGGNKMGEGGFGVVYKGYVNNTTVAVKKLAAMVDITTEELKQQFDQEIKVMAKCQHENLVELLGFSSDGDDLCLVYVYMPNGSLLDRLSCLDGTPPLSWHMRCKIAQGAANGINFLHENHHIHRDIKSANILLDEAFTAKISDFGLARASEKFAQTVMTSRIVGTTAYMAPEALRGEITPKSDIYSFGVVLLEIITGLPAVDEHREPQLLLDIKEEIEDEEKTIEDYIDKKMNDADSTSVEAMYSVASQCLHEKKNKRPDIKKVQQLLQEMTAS
TAK1, sequence (O43318 with tags, fused parts or gaps limits assumed): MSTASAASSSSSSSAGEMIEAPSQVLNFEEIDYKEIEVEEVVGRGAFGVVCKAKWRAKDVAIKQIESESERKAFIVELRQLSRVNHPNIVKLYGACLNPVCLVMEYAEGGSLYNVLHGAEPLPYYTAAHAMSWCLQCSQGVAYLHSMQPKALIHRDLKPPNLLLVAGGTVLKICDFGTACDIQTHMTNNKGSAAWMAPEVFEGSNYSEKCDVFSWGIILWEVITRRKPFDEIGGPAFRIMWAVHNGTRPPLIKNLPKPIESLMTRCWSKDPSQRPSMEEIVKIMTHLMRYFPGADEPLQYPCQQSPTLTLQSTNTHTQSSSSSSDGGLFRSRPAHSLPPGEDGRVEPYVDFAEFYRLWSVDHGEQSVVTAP
GCK, sequence (Q12851 whole entry): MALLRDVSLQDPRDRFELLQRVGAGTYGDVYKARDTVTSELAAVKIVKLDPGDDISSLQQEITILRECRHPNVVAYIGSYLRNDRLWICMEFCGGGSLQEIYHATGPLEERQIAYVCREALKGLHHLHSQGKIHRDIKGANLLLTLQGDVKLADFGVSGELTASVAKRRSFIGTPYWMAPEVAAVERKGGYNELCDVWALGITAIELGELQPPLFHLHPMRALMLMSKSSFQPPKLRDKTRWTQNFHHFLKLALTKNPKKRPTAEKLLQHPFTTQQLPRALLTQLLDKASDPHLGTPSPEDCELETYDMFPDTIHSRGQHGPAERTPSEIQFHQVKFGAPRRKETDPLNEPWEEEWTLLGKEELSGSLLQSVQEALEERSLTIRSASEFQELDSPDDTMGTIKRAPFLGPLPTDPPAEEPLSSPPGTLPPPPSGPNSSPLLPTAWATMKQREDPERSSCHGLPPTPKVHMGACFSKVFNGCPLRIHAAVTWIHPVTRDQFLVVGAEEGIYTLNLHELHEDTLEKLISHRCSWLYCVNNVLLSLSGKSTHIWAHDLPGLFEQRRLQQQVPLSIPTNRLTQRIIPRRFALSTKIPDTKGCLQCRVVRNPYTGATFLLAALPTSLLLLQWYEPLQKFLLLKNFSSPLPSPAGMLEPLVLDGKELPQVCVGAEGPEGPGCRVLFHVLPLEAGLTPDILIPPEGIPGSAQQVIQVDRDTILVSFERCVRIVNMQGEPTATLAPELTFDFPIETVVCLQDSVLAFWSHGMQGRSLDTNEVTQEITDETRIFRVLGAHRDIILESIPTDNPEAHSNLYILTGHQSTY
CLK2, sequence (P49760 whole entry): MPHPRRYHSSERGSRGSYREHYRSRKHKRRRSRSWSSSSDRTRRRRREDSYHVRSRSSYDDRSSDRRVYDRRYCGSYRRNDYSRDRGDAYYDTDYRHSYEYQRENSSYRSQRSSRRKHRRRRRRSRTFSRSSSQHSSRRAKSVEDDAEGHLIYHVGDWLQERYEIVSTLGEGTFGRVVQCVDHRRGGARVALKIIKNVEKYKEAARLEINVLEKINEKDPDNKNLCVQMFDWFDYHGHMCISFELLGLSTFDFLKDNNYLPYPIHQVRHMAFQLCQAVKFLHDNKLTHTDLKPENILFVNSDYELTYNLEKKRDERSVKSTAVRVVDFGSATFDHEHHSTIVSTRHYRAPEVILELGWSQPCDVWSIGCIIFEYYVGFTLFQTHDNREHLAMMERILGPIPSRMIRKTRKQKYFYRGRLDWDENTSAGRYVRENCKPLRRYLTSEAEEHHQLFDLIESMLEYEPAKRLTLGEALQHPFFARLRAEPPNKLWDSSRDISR

Structure (SMILES): CCCn1c(NC(=O)c2cccc(C(N)=O)c2)nc2ccccc21 [HS-206 (1), (E)-N-(1-Propyl-1,3-dihydro-2H-benzo[d]imidazol-2-ylidene)isophthalamide]
- cell proliferation (MDA-MB-231): significant reduction in cell proliferation; also recorded: inhibits cell proliferation in a dose-dependent manner
- IC50 (TAK1): 9.5 ± 2 nM
- inhibition at 10 µM (TAK1; 10 μM): > 90%
- growth inhibition, one-dose screen (60 cell lines (NCI-60); colorectal (KM12), leukemia (HL-60), non-small cell lung cancer (NCI-H522)): most affected
- growth inhibition, one-dose screen (60 cell lines (NCI-60); melanoma (M14), renal (786-0), ovarian cancer (Ovcar-3)): little effect
- inhibition at 10 µM (CLK2): > 90%
- P.b. EEF size (P. berghei EEFs; 10 μM, 0-24, 24-48 and 0-48 hpi, Huh7): significantly increased
- number of P.b. EEFs (P. berghei EEFs; 10 μM, Huh7): not affected
- number of P.b. EEFs (P. berghei EEFs; 30 μM, added 0-24 hpi or 0-48 hpi): decreased
- P.b. EEF size (P. berghei EEFs; 30 μM, added 0-24 hpi or 24-48 hpi, Huh7): increased
- number of P.b. EEFs (P. berghei EEFs; 30 μM, treatment from 24-48 hpi): did not significantly decreased
- total fluorescence signal from GFP-expressing P.b. EEFs (P. berghei EEFs; 10 and 30 μM, 48 h post-infection): decreased
- inhibition at 10 µM (GCK): > 90%
- IC50 (IRAK4): 120 ± 30 nM
- inhibition at 10 µM (IRAK4; 10 μM): > 90%
- levels of K63-linked ubiquitinated proteins [1]: dose-dependent decrease
